Patent US20060264460A1 (Wyeth, priority 2005, published 2006)

Target: T1, human Cot/Tpl2 kinase (Homo sapiens, UniProt P41279)
T1 construct: human Cot/Tpl2 kinase construct encoding residues 30-398; 6His (N); made in house; host or cells: Sf9 insect cells, baculovirus system (BD Biosciences)
Assay: Tpl2/Cot kinase assay: GST-MEK1 phosphorylation detected by ELISA (DELFIA Eu)
Format: biochemical
Settings: Table 2; Tpl2/Cot kinase, GST-MEK1 substrate, 50 uM ATP
Method in brief: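 Substrate phosphorylation (GST-MEK1 Ser217/221) quantified by DELFIA europium ELISA, yielding IC50 values. Reaction: 1 h at 30° C, pH 7.2 MOPS buffer, 50 uM ATP, 35 nM GST-MEK1, 0.4 nM monomeric His-Tpl2 purified from Sf9 cells, compounds at 1% final DMSO; stopped with EDTA.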

T1 sequence (P41279 30-398): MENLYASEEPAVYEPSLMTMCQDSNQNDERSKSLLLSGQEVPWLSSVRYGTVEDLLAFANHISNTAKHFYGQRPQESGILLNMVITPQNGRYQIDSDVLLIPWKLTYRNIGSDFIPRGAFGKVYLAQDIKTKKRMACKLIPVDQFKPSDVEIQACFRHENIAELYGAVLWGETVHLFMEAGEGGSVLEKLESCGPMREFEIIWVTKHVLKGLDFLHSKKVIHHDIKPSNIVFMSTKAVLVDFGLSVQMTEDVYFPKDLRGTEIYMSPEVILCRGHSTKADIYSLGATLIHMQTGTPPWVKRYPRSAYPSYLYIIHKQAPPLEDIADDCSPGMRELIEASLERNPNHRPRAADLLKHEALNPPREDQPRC

IC50	SMILES
0.0011 µM	N#Cc1cnc2c(Cl)cc(NCc3cn(CCCN4CCCCC4)nn3)cc2c1Nc1ccc(F)c(Cl)c1 [Example 539]
0.12 µM	CC(C)(C)OC(=O)N1CCCC(Cn2cc(CNc3cc(Br)c4ncc(C#N)c(Nc5ccc(F)c(Cl)c5)c4c3)nn2)C1 (stereo not shown) [Example 540]
0.25 µM	CC(C)(C)OC(=O)N1CCCC(Cn2cc(CNc3cc(Cl)c4ncc(C#N)c(Nc5ccc(F)c(Cl)c5)c4c3)nn2)C1 (stereo not shown) [Example 541]
0.19 µM	CC(C)(C)CN1CCC(n2cc(CNc3cc(Br)c4ncc(C#N)c(Nc5ccc(F)c(Cl)c5)c4c3)nn2)CC1 [Example 542]
0.32 µM	CC(C)(C)OC(=O)N1CCCC1Cn1cc(CNc2cc(Cl)c3ncc(C#N)c(Nc4ccc(F)c(Cl)c4)c3c2)nn1 (stereo not shown) [Example 543]
0.033 µM	N#Cc1cnc2c(Br)cc(NCc3cn(CC4CCCNC4)nn3)cc2c1Nc1ccc(F)c(Cl)c1 (stereo not shown) [Example 545]
0.048 µM	N#Cc1cnc2c(Cl)cc(NCc3cn(CC4CCCNC4)nn3)cc2c1Nc1ccc(F)c(Cl)c1 (stereo not shown) [Example 546]
0.0061 µM	CC(=O)N1CCC(n2cc(CNc3cc(Br)c4ncc(C#N)c(Nc5ccc(F)c(Cl)c5)c4c3)nn2)CC1 [Example 547]
0.034 µM	CN1CCCC1CCn1cnc(CNc2cc(Br)c3ncc(C#N)c(Nc4ccc(F)c(Cl)c4)c3c2)c1 (stereo not shown) [Example 548]
0.0092 µM	N#Cc1cnc2c(Br)cc(NCc3cn(CC4CCCN4)nn3)cc2c1Nc1ccc(F)c(Cl)c1 (stereo not shown) [Example 550]
0.0048 µM	C=CCn1cnc(CNc2cc(Br)c3ncc(C#N)c(Nc4ccc(F)c(Cl)c4)c3c2)c1 [Example 551]
0.0007 µM	N#Cc1cnc2c(Cl)cc(NCc3cn(Cc4cccnc4)cn3)cc2c1Nc1ccc(F)c(Cl)c1 [Example 553]
0.023 µM	N#Cc1cnc2c(Br)cc(NCc3cn(-c4ccncc4)cn3)cc2c1Nc1ccc(F)c(Cl)c1 [Example 554]
0.33 µM	N#Cc1cnc2c(Br)cc(NCc3cc([C@@H]4CCCN4)n[nH]3)cc2c1Nc1ccc(F)c(Cl)c1 [Example 555]
0.0034 µM	N#Cc1cnc2c(Br)cc(NCc3cn(CCc4ccccn4)nn3)cc2c1Nc1ccc(F)c(Cl)c1 [Example 558]
0.0055 µM	N#Cc1cnc2c(Br)cc(NCc3cn(-c4ccncc4)nn3)cc2c1Nc1ccc(F)c(Cl)c1 [Example 559]
0.02 µM	C=CCn1cc(CNc2cc(Br)c3ncc(C#N)c(Nc4ccc(F)c(Cl)c4)c3c2)nn1 [Example 561]
0.02 µM	COCCn1cc(CNc2cc(Cl)c3ncc(C#N)c(Nc4ccc(F)c(Cl)c4)c3c2)nn1 [Example 562]
0.025 µM	N#Cc1cnc2c(Cl)cc(NCc3cn(CCc4ccccn4)nn3)cc2c1Nc1ccc(F)c(Cl)c1 [Example 563]
0.021 µM	COCCOCCn1cc(CNc2cc(Cl)c3ncc(C#N)c(Nc4ccc(F)c(Cl)c4)c3c2)nn1 [Example 564]
0.1 µM	COCCOCCn1cc(CNc2cc(Br)c3ncc(C#N)c(Nc4ccc(F)c(Cl)c4)c3c2)nn1 [Example 565]
0.04 µM	CCN1CCC(Cn2cc(CNc3cc(Br)c4ncc(C#N)c(Nc5ccc(F)c(Cl)c5)c4c3)nn2)CC1 [Example 566]
0.029 µM	CC(C)N1CCC(Cn2cc(CNc3cc(Br)c4ncc(C#N)c(Nc5ccc(F)c(Cl)c5)c4c3)nn2)CC1 [Example 567]
0.064 µM	CCN1CCC(CCn2cc(CNc3cc(Br)c4ncc(C#N)c(Nc5ccc(F)c(Cl)c5)c4c3)nn2)CC1 [Example 568]
0.057 µM	CC(C)N1CCC(CCn2cc(CNc3cc(Br)c4ncc(C#N)c(Nc5ccc(F)c(Cl)c5)c4c3)nn2)CC1 [Example 569]
0.014 µM	N#Cc1cnc2c(Cl)cc(NCc3cn(C4CCOCC4)nn3)cc2c1Nc1ccc(F)c(Cl)c1 [Example 570]

IC50	SMILES
0.24 µM	CN(C)CCc1nc[nH]c1CNc1cc(Br)c2ncc(C#N)c(Nc3ccc(F)c(Cl)c3)c2c1 [Example 571]
0.091 µM	N#Cc1cnc2c(Cl)cc(NCc3cn(CCOCCOCCO)nn3)cc2c1Nc1ccc(F)c(Cl)c1 [Example 572]
0.14 µM	N#Cc1cnc2c(Br)cc(NCc3cn(CCOCCOCCO)nn3)cc2c1Nc1ccc(F)c(Cl)c1 [Example 573]
0.07 µM	CN(C)CC(c1ccccc1)n1cc(CNc2cc(Cl)c3ncc(C#N)c(Nc4ccc(F)c(Cl)c4)c3c2)nn1 (stereo not shown) [Example 574]
0.093 µM	CN(C)CC(c1ccccc1)n1cc(CNc2cc(Br)c3ncc(C#N)c(Nc4ccc(F)c(Cl)c4)c3c2)nn1 (stereo not shown) [Example 575]
0.016 µM	N#Cc1cnc2c(Cl)cc(NCc3cn(-c4cc[n+]([O-])cc4)nn3)cc2c1Nc1ccc(F)c(Cl)c1 [Example 576]
0.015 µM	N#Cc1cnc2c(Br)cc(NCc3cn(-c4cc[n+]([O-])cc4)nn3)cc2c1Nc1ccc(F)c(Cl)c1 [Example 577]
0.32 µM	N#Cc1cnc2c(Cl)cc(NCc3cn(-c4ccnc(N5CCCCC5)n4)nn3)cc2c1Nc1ccc(F)c(Cl)c1 [Example 578]
0.033 µM	N#Cc1cnc2c(Br)cc(NCc3cn(Cc4ccccn4)nn3)cc2c1Nc1ccc(F)c(Cl)c1 [Example 579]
0.0036 µM	N#Cc1cnc2c(Cl)cc(NCc3cn(CCCO)nn3)cc2c1Nc1ccc(F)c(Cl)c1 [Example 581]
0.016 µM	CN(C)C(=O)OCCCn1cc(CNc2cc(Cl)c3ncc(C#N)c(Nc4ccc(F)c(Cl)c4)c3c2)nn1 [Example 582]
> 3 µM	N#Cc1cnc2c(Cl)cc(NCc3cn(Cc4ccc(C(F)(F)F)cc4)nn3)cc2c1Nc1ccc(F)c(Cl)c1 [Example 583]
0.0035 µM	CN(C)C(=O)OCCCn1cc(CNc2cc(Br)c3ncc(C#N)c(Nc4ccc(F)c(Cl)c4)c3c2)nn1 [Example 584]
0.79 µM	N#Cc1cnc2c(Cl)cc(NCc3cn(CC4CCCCC4)nn3)cc2c1Nc1ccc(F)c(Cl)c1 [Example 585]
0.096 µM	CC(c1ccccc1)n1cc(CNc2cc(Cl)c3ncc(C#N)c(Nc4ccc(F)c(Cl)c4)c3c2)nn1 (stereo not shown) [Example 586]
0.0067 µM	CN(C)CCC(c1cccnc1)n1cc(CNc2cc(Br)c3ncc(C#N)c(Nc4ccc(F)c(Cl)c4)c3c2)nn1 (stereo not shown) [Example 587]
0.036 µM	CN(C)CCC(c1cccnc1)n1cc(CNc2cc(Cl)c3ncc(C#N)c(Nc4ccc(F)c(Cl)c4)c3c2)nn1 (stereo not shown) [Example 588]
0.52 µM	CC(C)(C)OC(=O)N1CCCN(CCCn2cc(CNc3cc(Br)c4ncc(C#N)c(Nc5ccc(F)c(Cl)c5)c4c3)nn2)CC1 [Example 589]
0.12 µM	CC(C)(C)OC(=O)N1CCCN(CCCn2cc(CNc3cc(Cl)c4ncc(C#N)c(Nc5ccc(F)c(Cl)c5)c4c3)nn2)CC1 [Example 590]
1.3 µM	CC(C)(C)OC(=O)N1CCN(CCCn2cc(CNc3cc(Br)c4ncc(C#N)c(Nc5ccc(F)c(Cl)c5)c4c3)nn2)CC1 [Example 591]
0.23 µM	CC(C)(C)OC(=O)N1CCN(CCCn2cc(CNc3cc(Cl)c4ncc(C#N)c(Nc5ccc(F)c(Cl)c5)c4c3)nn2)CC1 [Example 592]
0.043 µM	N#Cc1cnc2c(Br)cc(NCc3cn(CCCN4CCCNCC4)nn3)cc2c1Nc1ccc(F)c(Cl)c1 [Example 594]
0.074 µM	N#Cc1cnc2c(Cl)cc(NCc3cn(CCCN4CCCNCC4)nn3)cc2c1Nc1ccc(F)c(Cl)c1 [Example 595]
0.11 µM	N#Cc1cnc2c(Br)cc(NCc3cn(CCCN4CCNCC4)nn3)cc2c1Nc1ccc(F)c(Cl)c1 [Example 596]
0.16 µM	N#Cc1cnc2c(Cl)cc(NCc3cn(CCCN4CCNCC4)nn3)cc2c1Nc1ccc(F)c(Cl)c1 [Example 597]
0.2 µM	N#Cc1cnc2c(Cl)cc(NCC(=O)NCc3cccnc3)cc2c1Nc1ccc(F)c(Cl)c1 [Example 598]
